Target: T1, recombinant human IL-8 type b receptor (IL-8 Rb, Type II, permissive receptor) (Homo sapiens, UniProt P25025)
T1 construct: membranes
T1 sequence (P25025 1-360): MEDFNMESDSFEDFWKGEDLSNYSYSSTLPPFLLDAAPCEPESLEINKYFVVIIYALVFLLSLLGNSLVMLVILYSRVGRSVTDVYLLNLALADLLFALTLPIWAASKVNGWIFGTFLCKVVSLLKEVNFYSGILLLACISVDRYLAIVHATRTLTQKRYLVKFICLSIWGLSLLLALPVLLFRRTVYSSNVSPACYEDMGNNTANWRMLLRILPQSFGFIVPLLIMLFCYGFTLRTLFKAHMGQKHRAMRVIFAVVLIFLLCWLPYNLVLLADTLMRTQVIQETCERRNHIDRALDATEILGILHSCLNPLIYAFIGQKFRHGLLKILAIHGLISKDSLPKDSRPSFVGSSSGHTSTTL
Experiment: Receptor binding assay, [125I] IL-8, permissive model
Description: [^125 I] IL-8 (human recombinant) was obtained from Amersham Corp., Arlington Heights, Ill., with specific activity 2000 Ci/mmol. Gro-a was obtained from NEN-New England Nuclear. All other chemicals were of analytical grade. High levels of recombinant human IL-8 type a and b receptors were individually expressed in Chinese hamster ovary cells as described previously (Holmes, et al., Science, 1991, 253, 1278). The Chinese hamster ovary membranes were homogenized according to a previously described protocol (Haour, et al., J Biol Chem., 249 pp 2195-2205 (1974)). Except that the homogenization buffer was changed to 10 mM Tris-HCL, 1 mM MgSO4, 0.5 mM EDTA (ethylene-diaminetetra-acetic acid), 1 mMPMSF (a-toluenesulphonyl fluoride), 0.5 mg/L Leupeptin, pH 7.5. Membrane protein concentration was determined using Pierce Co. micro-assay kit using bovine serum albumin as a standard. All assays were performed in a 96-well micro plate format. Each reaction mixture contained ^125 I IL-8 (0.25 nM) or ^125 I Gro-a and 0.5 μg/mL of IL-8Ra or 1.0 μg/mL of IL-8Rb membranes in 20 mM Bis-Trispropane and 0.4 mM Tris HCl buffers, pH 8.0, containing 1.2 mM MgSO4, 0.1 mM EDTA, 25 mM NaCl and 0.03% CHAPS. […] The filter was then dried and counted on the Betaplate liquid scintillation counter. […]

SMILES: Cc1cc(Cl)ccc1NC(=O)Nc1ccccc1C(=O)O [1-(2-Carboxyphenyl)-3-(4-chloro-2-methylphenyl)urea]
- level at which found to be active (IL-8 receptor inhibition): about 75 μg/mL

Source: patent publication US6211373A, “Phenyl urea antagonists of the IL-8 receptor” (SmithKline Beecham Corporation, priority 1998, dated 2001)
